In US20070249561A1, “Pharmacological method for treatment of neuropathic pain” (priority 2006, published 2007):

Columns and labels:
[1] = system: spared nerve injury (SNI) model of neuropathic pain in rats; test: Mechanical threshold (von Frey) to hindpaw withdrawal in spared nerve injury (SNI) rats; type: in vivo, rat; conditions: for effect of agonist alone on latency to hindpaw withdrawal (mechanical): 100 μg intrathecal; for effect on behavioral signs of neuropathic pain (mechanical threshold / latency to hindpaw withdrawal): dose series
Description: (§1) Male Sprague-Dawley rats (Charles Rivers Laboratories, Inc) were used, and weighed 280-320 g at the time of surgery and intrathecal catheter implantation, and 340-380 g during pharmacological testing. Animals were housed in individual cages on a 12-hour light/dark cycle starting at 6 a.m., and were given food and water […]. All animal use protocols were approved by the Institutional Animal Care and Use Committee (IACUC) of Tulane University.
(§2) Neuropathic pain was modeled in rats using the spared nerve injury model (“SNI”), which is widely accepted as a model for neuropathic pain. To produce the model, rats were anesthetized with isoflurane (5% induction, then 1.5% maintenance in oxygen). As previously described, an incision was made in the skin at the level of the trifurcation of the left sciatic nerve (Decosterd et al., 2000). The overlying muscles were retracted, exposing the common peroneal, tibial, and sural nerves. The common peroneal and tibial nerves were ligated with 6-0 silk (Ethicon, Somerville, N.J.), and then the knot and adjacent nerve (2 mm) were transected. Care was taken to avoid touching the sural nerve branch. The muscle was then sutured with 4-0 absorbable sutures (Ethicon) and the wound was closed with metal clips.
(§3) At the time of nerve injury, animals were re-anesthetized with isoflurane (Baxter, Deerfield, Ill.), and then placed in a stereotaxic apparatus (Stoelting, Wood Dale, Ill.). As previously described (Malkmus et al., 2004), rats were implanted with polyethylene-10 (PE-10, Clay Adams, Sparks, Md.) intrathecal catheters. Briefly, the animal's head was flexed forward in the stereotaxic apparatus, an incision was made in the skin at the back of the head and neck, and the cisternal membrane was exposed by sharp dissection. The membrane was gently punctured with the tip of a #15 scalpel blade, and the distal end of a 7.5 cm long PE-10 catheter was passed through the opening in the cisternal membrane, into the intrathecal space. The catheter was loosely sutured to subcutaneous tissue, leaving the proximal end external to the animal and accessible to the experimenter, and the skin was then approximated using 4-0 absorbable sutures (Ethicon).
(§4) Following surgery, rats were allowed 7 days to recover prior to drug administration and experimentation. To minimize any effects of animal handling on experimental data, drugs and vehicle (saline, or saline and DMSO) were administered via remote injection. PE-10 tubing, filled with vehicle or drug, was used to connect a Hamilton microsyringe to a 30-gauge microinjector, through which 15-20 μL of vehicle or drug was delivered to the lumbar region of the spinal cord via the intrathecal catheter. Progress of the injection was visually confirmed by observing the movement of a small air bubble within the PE-10 tubing. Injectors were left in place an additional minute after fluid delivery, to minimize backflow within the catheter, and animals were then returned to the testing box.
(§5) All drug solutions were freshly prepared daily. After evaporating methyl acetate solvent under a gentle nitrogen stream, 15-deoxy-Δ^12,14 PGJ2 was reconstituted in isotonic saline (comprising 0.9% sodium chloride in water, also called “normal saline”). Rosiglitazone was diluted to the concentrations indicated in the FIGS. with a solution of 30% dimethylsulfoxide (DMSO) and 70% isotonic saline. 15-deoxy-Δ^12,14 PGJ2, rosiglitazone, BADGE, and DMSO were all obtained from Cayman Chemicals (Ann Arbor, Mich.). As used herein, the term “vehicle” refers to the solvent used to dilute the drugs, and may comprise without limitation, DMSO, saline, and water.
(§6) Data are presented as mean±standard error of the mean (SEM). Differences between means were analyzed by two-way repeated-measures analysis of variance (ANOVA), with drug treatment as the between-subjects variable and time as the repeated measure. […]

[2] = system: SNI rats; conditions: rat, in vivo
[3] = system: spared nerve injury (SNI) model of neuropathic pain in rats; test: Cold allodynia (acetone drop, paw withdrawal duration) in SNI rats; type: in vivo, rat
Description: as §1, §2, §3, §4, §5, §6

[4] = system: spared nerve injury (SNI) model of neuropathic pain in mice; test: Mechanical threshold (von Frey) to hindpaw withdrawal in SNI mice; type: in vivo, mouse; conditions: intrathecal
Procedure: (§7) Male CD1 mice (Charles Rivers Laboratories, Inc) were used, and weighed 18-22 g at the time of surgery, and 29-32 g during pharmacological testing. To produce the SNI model in mice, surgical procedures essentially identical to those used in rat were used. Unlike the rat SNI model, where an indwelling catheter was inserted surgically, vehicle or drugs were injected directly into the intrathecal space of the unanesthetized mouse using the classical method of Hylden and Wilcox (“Intrathecal morphine in mice: a new technique” Eur. J. Pharmacol. 17:313-6, 1980) to administer drugs to the intrathecal space dorsal to but not within the spinal cord. Briefly, a piece of cloth was used to restrain the mouse by cradling the iliac crest between one's thumb and forefinger. The L5-L6 spinal bones were located, and a 0.5 inch 30G hypodermic needle was inserted perpendicularly into the L4-L5 interspinous space. Upon insertion, the needle was angled about 30°-45° from the coronal (frontal) plane, and then advanced slightly. The needle angle was then adjusted gently, until paw or tail movement was evoked, whereupon the needle was held in position and 5 μL of saline or drug was administered via a 25 μL Hamilton syringe.
(§8) Data are presented as mean±standard error of the mean (SEM). Differences between means were analyzed by two-way repeated-measures analysis of variance (ANOVA), with drug treatment as the between-subjects variable and time as the repeated measure. If statistically significant differences (p<0.05) were detected, the analyses were followed by post hoc t-tests.
(§9) The procedures used to evaluate behavioral signs of mechanical and cold allodynia were essentially the same for rats as they were for mice. Animals were acclimated to a stainless steel grid within individual Plexiglas boxes for 30-60 minutes, and then tested for mechanical allodynia and cold allodynia. In all animals, mechanical allodynia was assessed using von Frey (VF) filaments (Stoelting, Inc), and was done before assessing cold allodynia.
To assess mechanical allodynia, the plantar region of each hind paw was stimulated with an incremental series of 8 different VF hairs (monofilaments of logarithmically varying stiffness). In SNI rats and mice, the stimulus region was localized to the sural innervation territory of the lateral aspect of the plantar hind paw. The 50% withdrawal threshold (“mechanical” threshold) was determined using the up-down method of Dixon, modified by Chaplan et al. (Chaplan et al., 1994). First, an intermediate von Frey monofilament (e.g., for rats, number 4.31 was used, which exerts a force of 2.0 g) was applied perpendicular to the plantar skin, causing a slight bending of the hair. […]

[5] = system: spared nerve injury (SNI) model of neuropathic pain in mice; test: Cold allodynia (acetone drop, paw withdrawal duration) in SNI mice; type: in vivo, mouse; conditions: intrathecal
Procedure: as §7, §8, §9
Cold allodynia was evaluated by applying a drop of acetone to the plantar paw of control and SNI rats. Acetone was applied via a syringe connected to PE-90 tubing, flared at the tip to a diameter of 3.5 mm. Surface tension maintained the volume of the drop to 10-12 μL. The length of time the animal lifted or shook its paw was recorded. The duration of paw withdrawal was recorded for 30 seconds, and three observations were averaged. […] In such cases acetone testing was either terminated, or that data was not included in the final analysis.

[6] = Heneka et al. 2005; Maeshiba et al. 1997; cited from earlier work
[7] = system: animals subjected to sham SNI surgery; test: Sensory thresholds (mechanical, cold, infrared heat) in rats subjected to sham SNI surgery; type: in vivo, rat; conditions: p>0.05
Procedure: as §9
To assess mechanical allodynia, the plantar region of each hind paw was stimulated with an incremental series of 8 different VF hairs (monofilaments of logarithmically varying stiffness). In SNI rats and mice, the stimulus region was localized to the sural innervation territory of the lateral aspect of the plantar hind paw. The 50% withdrawal threshold (“mechanical” threshold) was determined using the up-down method of Dixon, modified by Chaplan et al. (Chaplan et al., 1994). First, an intermediate von Frey monofilament (e.g., for rats, number 4.31 was used, which exerts a force of 2.0 g) was applied perpendicular to the plantar skin, causing a slight bending of the hair. In the event of a positive response (defined as rapid withdrawal of the paw within 6 seconds), a smaller filament was tested. In the event of a negative response, a larger filament was tested. The mechanical threshold is the smallest amount of force required to evoke a positive response. […] In such cases von Frey testing was either terminated, or that data was not included in the final analysis.
Cold allodynia was evaluated by applying a drop of acetone to the plantar paw of control and SNI rats. Acetone was applied via a syringe connected to PE-90 tubing, flared at the tip to a diameter of 3.5 mm. Surface tension maintained the volume of the drop to 10-12 μL. The length of time the animal lifted or shook its paw was recorded. The duration of paw withdrawal was recorded for 30 seconds, and three observations were averaged. […]
(§10) To assess more subtle behavioral effects, we evaluated the effects of rosiglitazone on motor coordination and sensory thresholds in uninjured rats.

[8] = system: animals subjected to sham SNI surgery; test: Accelerating rotarod test of motor coordination in sham SNI rats; type: in vivo, rat
Procedure: To evaluate the effect of PPARγ agonists on proprioceptive function, rats were placed on an accelerating rotarod (Stoelting, Wood Dale, III). The rotating rod was subdivided into four compartments for the simultaneous assessment of four animals. Initially rotating at a rate of 4 rpm, the system was adjusted gradually over 10 minutes to a maximum speed of 40 rpm. The time that a rat remained on the rotating rod without falling off was recorded—the rotarod duration. After sham SNI surgery and one day before testing, animals were acclimated to the rotarod for 5-10 trials, yielding average latencies of approximately 3 minutes. On the day of testing, rotarod duration was measured three times prior to drug or vehicle administration, and the times averaged. After drug administration, rotarod duration was measured in triplicate at 60 and 120 minutes from the time of administration, with durations averaged for each time point.
as §10

## CCCCC/C=C/C=C1/C(=O)C=C[C@@H]1CC=CCCCC(=O)O (stereo in doubt) [15-deoxy-Δ^12,14 PGJ2, (Z)-7-[(1S,5E)-5-[(E)-oct-2-enylidene]-4-oxo-1-cyclopent-2-enyl]hept-5-enoic acid]
[1]; SNI rats
  effect of agonist alone on latency to hindpaw withdrawal (mechanical): increased latency to hindpaw withdrawal
[1]; intrathecal, SNI rats
  dissipation of analgesic effect (mechanical threshold): dissipated after four hours
  onset of analgesic effect after injection (mechanical threshold): ≤ 30 min
  time of peak analgesic effect after injection (mechanical threshold): about 60 minutes
  effect on behavioral signs of neuropathic pain (mechanical threshold / latency to hindpaw withdrawal): reduced behavioral signs of neuropathic pain
[1]; intrathecal, SNI rats, 60 minutes after injection
  ED50, log dose-response curve, mechanical threshold (hindpaw withdrawal): 73.97 μg
[2]
  gross behavioral changes or other obvious deleterious effects: neither 15-deoxy-Δ^12,14 PGJ2 nor rosiglitazone produced gross behavioral changes or other obvious deleterious effects

## CC(C)(c1ccc(OCC2CO2)cc1)c1ccc(OCC2CO2)cc1 (stereo not shown) [BADGE, bisphenol A diglycidyl ether]
[3]; intrathecal co-administration with 100 μg rosiglitazone
  effect of co-administered antagonist on rosiglitazone analgesia (cold hypersensitivity): dose-dependently eliminated the analgesic effects of rosiglitazone
[1]; administered alone, SNI rats
  effect of antagonist administered alone on hindpaw withdrawal latency: did not have a significant effect on hindpaw withdrawal latency
[1]; intrathecal co-administration with 100 μg 15-deoxy-Δ^12,14 PGJ2, 60 minutes after injection, SNI rats
  ED50, log dose-response curve, block of 15-deoxy-Δ^12,14 PGJ2-induced elevation of mechanical threshold: 11.44 μg
[1]; intrathecal co-administration with 100 μg 15-deoxy-Δ^12,14 PGJ2, SNI rats
  effect of co-administered antagonist on analgesic effects of 15-deoxy-Δ^12,14 PGJ2 (mechanical threshold): eliminated the analgesic effects of 15-deoxy-Δ^12,14 PGJ2
[1]; intrathecal co-administration with 100 μg rosiglitazone, SNI rats
  effect of co-administered antagonist on rosiglitazone analgesia (mechanical hypersensitivity): eliminated the analgesic effects of 100 μg rosiglitazone on mechanical hypersensitivity in a dose-dependent manner

## CCc1ccc(CCOc2ccc(CC3SC(=O)NC3=O)cc2)nc1 (stereo not shown) [pioglitazone, 5-[[4-[2-(5-ethylpyridin-2-yl)ethoxy]phenyl]methyl]thiazolidine-2,4-dione]
[4]; 150 μg dose
  onset of anti-allodynic effect after injection (mechanical threshold): ≤ 30 min
  time after which anti-allodynic effect dissipated (mechanical threshold): 90 min
  time of peak anti-allodynic effect after injection (mechanical threshold): 30 min
[4]; dose series
  effect on behavioral signs of neuropathic pain (threshold to hindpaw withdrawal, von Frey): reduced behavioral signs of neuropathic pain in a dose-dependent and reversible manner
[5]
  onset of analgesic effects after injection (cold allodynia): ≤ 30 min
  time of most pronounced analgesic effects (cold allodynia): approximately 60 minutes
  time within which analgesic effects began to dissipate (cold allodynia): ≤ 90 min
[5]; dose series
  effect on cold hypersensitivity (paw withdrawal duration after acetone): decreased cold hypersensitivity in a dose-dependent and reversible manner
[6]
  ability to cross the blood brain barrier: can cross the blood brain barrier

## CN(CCOc1ccc(CC2SC(=O)NC2=O)cc1)c1ccccn1 (stereo not shown) [rosiglitazone, 5-[[4-[2-(methyl-pyridin-2-yl-amino)ethoxy]phenyl]methyl]thiazolidine-2,4-dione]
[7]
  effect on cold response: does not affect
  effect on latency to paw withdrawal response to an infrared heat (IR) stimulus: does not affect
  effect on mechanical threshold: does not affect
[3]; 100 μg intrathecal
  effect of agonist alone on cold hypersensitivity: decreased cold hypersensitivity in a reversible manner
[3]; intrathecal
  dissipation of analgesic effects (cold allodynia): dissipated after four hours
  onset of analgesic effects after injection (cold allodynia): ≤ 30 min
  time of most pronounced analgesic effects (cold allodynia): approximately 90 minutes
[3]; intrathecal, dose series
  effect on cold hypersensitivity (paw withdrawal duration after acetone): decreased cold hypersensitivity in a dose-dependent and reversible manner
[1]; SNI rats
  effect of agonist alone on latency to hindpaw withdrawal (mechanical): reduced behavioral signs of neuropathic pain in a reversible manner
[1]; intrathecal, SNI rats
  dissipation of analgesic effect (mechanical threshold): dissipated after four hours
  onset of analgesic effect after injection (mechanical threshold): ≤ 30 min
  time of peak analgesic effect after injection (mechanical threshold): about 90 minutes
  effect on behavioral signs of neuropathic pain (mechanical threshold / latency to hindpaw withdrawal): reduced behavioral signs of neuropathic pain in a dose-dependent and reversible manner
[8]; 1000 μg
  effect on motor coordination (rotarod), supra-maximal dose: reduced motor coordination, but this effect was small, not statistically significant
[8]; p>0.05
  effect on motor coordination (rotarod): does not affect
[2]
  gross behavioral changes or other obvious deleterious effects: neither 15-deoxy-Δ^12,14 PGJ2 nor rosiglitazone produced gross behavioral changes or other obvious deleterious effects
